From ChEMBL document CHEMBL6153104, “Discovery of the first potent ROR1 degrader for the treatment of non-small cell lung cancer” (Eur J Med Chem, 2025)
Active and inactive are the calls of the source. The rule behind the calls is not given here.

Experiments:
NCI-H23 [1] = experiment: Induction of apoptosis in human NCI-H23 cells assessed as necrotic cells at 0.3 uM incubated for 24 hrs by […]/Annexin V-PE staining based flow cytometric analysis (reference value: 0.5 %); format: functional
[2] = target: T1, von Hippel-Lindau disease tumor suppressor/Cyclin-dependent kinase-like 2 (Homo sapiens) (UniProt Q92772+P40337); experiment: PROTAC activity at VHL/CDKL2 in human NCI-H1975 cells assessed as induction of CDKL2 degradation by Western blot analysis; format: cell-based
NCI-H23 [3] = experiment: Induction of apoptosis in human NCI-H23 cells assessed as late apoptotic cells at 1 uM incubated for 24 hrs by […]/Annexin V-PE staining based flow cytometric analysis (reference value: 1.6 %); format: functional
[4] = target: T2, von Hippel-Lindau disease tumor suppressor/Tyrosine-protein kinase transmembrane receptor ROR2 (Homo sapiens) (UniProt Q01974+P40337); experiment: PROTAC activity at VHL/ROR2 in human NCI-H1975 cells assessed as induction of ROR2 degradation at 1 uM by Western blot analysis; format: cell-based
[5] = target: T3, von Hippel-Lindau disease tumor suppressor/Cyclin-dependent kinase 4 (Homo sapiens) (UniProt P11802+P40337); experiment: PROTAC activity at VHL/CDK4 in human NCI-H23 cells assessed as induction of CDK4 degradation by Western blot analysis; format: cell-based
NCI-H23 [6] = experiment: Induction of apoptosis in human NCI-H23 cells assessed as late apoptotic cells at 0.1 uM incubated for 24 hrs by […]/Annexin V-PE staining based flow cytometric analysis (reference value: 1.6 %); format: functional
[7] = target: T4, von Hippel-Lindau disease tumor suppressor/Inactive tyrosine-protein kinase transmembrane receptor ROR1 (Homo sapiens, UniProt P40337+Q01973); experiment: PROTAC activity at VHL/ROR1 in human NCI-H23 cells assessed as induction of ROR1 degradation incubated for 12 hrs by Western blot analysis; format: cell-based
[8] = target: T4, von Hippel-Lindau disease tumor suppressor/Inactive tyrosine-protein kinase transmembrane receptor ROR1; experiment: PROTAC activity at VHL/ROR1 in human NCI-H23 cells assessed as induction of ROR1 degradation preincubated with cycloheximide followed by compound addition and measured after 6 hrs by Western blot analysis; format: cell-based
Target sequence in this assay (P40337 whole entry): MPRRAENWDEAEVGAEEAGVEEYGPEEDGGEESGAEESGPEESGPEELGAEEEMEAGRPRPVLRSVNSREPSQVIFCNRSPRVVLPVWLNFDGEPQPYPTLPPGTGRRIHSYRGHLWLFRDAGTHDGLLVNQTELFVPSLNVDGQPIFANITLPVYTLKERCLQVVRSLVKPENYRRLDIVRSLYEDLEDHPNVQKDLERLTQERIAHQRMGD
Target sequence in this assay (Q01973 30-937 partner limits assumed): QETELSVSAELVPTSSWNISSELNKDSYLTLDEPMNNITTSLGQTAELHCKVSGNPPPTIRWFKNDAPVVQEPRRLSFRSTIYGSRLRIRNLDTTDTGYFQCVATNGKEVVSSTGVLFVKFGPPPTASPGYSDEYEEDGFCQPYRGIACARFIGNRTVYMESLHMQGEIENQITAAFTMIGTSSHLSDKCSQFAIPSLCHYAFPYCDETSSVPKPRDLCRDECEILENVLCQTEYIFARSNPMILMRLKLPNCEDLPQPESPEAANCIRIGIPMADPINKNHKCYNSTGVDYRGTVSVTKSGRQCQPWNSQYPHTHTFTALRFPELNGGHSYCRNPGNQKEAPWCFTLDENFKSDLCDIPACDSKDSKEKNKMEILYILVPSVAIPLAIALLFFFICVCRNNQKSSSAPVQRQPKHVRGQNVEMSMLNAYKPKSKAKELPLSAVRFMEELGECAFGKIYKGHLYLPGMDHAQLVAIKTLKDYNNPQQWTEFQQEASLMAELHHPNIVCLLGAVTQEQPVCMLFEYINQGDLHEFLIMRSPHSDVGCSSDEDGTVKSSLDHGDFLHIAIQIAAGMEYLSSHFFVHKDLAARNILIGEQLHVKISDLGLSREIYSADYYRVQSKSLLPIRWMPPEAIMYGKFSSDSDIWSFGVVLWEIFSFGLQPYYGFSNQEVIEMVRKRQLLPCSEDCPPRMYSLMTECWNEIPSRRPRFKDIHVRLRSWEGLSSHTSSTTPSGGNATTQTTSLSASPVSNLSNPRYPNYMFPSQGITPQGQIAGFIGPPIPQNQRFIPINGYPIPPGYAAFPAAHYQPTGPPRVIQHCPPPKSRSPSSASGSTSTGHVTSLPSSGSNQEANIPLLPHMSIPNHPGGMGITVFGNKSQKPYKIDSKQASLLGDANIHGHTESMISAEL

[9] = target: T4, von Hippel-Lindau disease tumor suppressor/Inactive tyrosine-protein kinase transmembrane receptor ROR1; experiment: PROTAC activity at VHL/ROR1 in human NCI-H23 cells assessed as induction of ROR1 degradation at 1 uM by Western blot analysis; format: cell-based; settings: time 2-24 hrs
Target sequence in this assay (P40337 whole entry): as the sequence (P40337 whole entry) above
Target sequence in this assay (Q01973 30-937 partner limits assumed): as the sequence (Q01973 30-937 partner limits assumed) above

NCI-H23 [10] = experiment: Induction of apoptosis in human NCI-H23 cells assessed as early apoptotic cells at 0.3 uM incubated for 24 hrs by […]/Annexin V-PE staining based flow cytometric analysis (reference value: 5.1 %); format: functional
[11] = target: T5, von Hippel-Lindau disease tumor suppressor/Cyclin-dependent kinase 7 (Homo sapiens) (UniProt P50613+P40337); experiment: PROTAC activity at VHL/CDK7 in human NCI-H23 cells assessed as induction of CDK7 degradation by Western blot analysis; format: cell-based
[12] = target: T3, von Hippel-Lindau disease tumor suppressor/Cyclin-dependent kinase 4 (Homo sapiens); experiment: PROTAC activity at VHL/CDK4 in human NCI-H1975 cells assessed as induction of CDK4 degradation by Western blot analysis; format: cell-based
[13] = target: T4, von Hippel-Lindau disease tumor suppressor/Inactive tyrosine-protein kinase transmembrane receptor ROR1; experiment: PROTAC activity at VHL/ROR1 in human NCI-H1975 cells assessed as induction of ROR1 degradation incubated for 12 hrs by Western blot analysis; format: cell-based
Target sequence in this assay (P40337 whole entry): as the sequence (P40337 whole entry) above
Target sequence in this assay (Q01973 whole entry): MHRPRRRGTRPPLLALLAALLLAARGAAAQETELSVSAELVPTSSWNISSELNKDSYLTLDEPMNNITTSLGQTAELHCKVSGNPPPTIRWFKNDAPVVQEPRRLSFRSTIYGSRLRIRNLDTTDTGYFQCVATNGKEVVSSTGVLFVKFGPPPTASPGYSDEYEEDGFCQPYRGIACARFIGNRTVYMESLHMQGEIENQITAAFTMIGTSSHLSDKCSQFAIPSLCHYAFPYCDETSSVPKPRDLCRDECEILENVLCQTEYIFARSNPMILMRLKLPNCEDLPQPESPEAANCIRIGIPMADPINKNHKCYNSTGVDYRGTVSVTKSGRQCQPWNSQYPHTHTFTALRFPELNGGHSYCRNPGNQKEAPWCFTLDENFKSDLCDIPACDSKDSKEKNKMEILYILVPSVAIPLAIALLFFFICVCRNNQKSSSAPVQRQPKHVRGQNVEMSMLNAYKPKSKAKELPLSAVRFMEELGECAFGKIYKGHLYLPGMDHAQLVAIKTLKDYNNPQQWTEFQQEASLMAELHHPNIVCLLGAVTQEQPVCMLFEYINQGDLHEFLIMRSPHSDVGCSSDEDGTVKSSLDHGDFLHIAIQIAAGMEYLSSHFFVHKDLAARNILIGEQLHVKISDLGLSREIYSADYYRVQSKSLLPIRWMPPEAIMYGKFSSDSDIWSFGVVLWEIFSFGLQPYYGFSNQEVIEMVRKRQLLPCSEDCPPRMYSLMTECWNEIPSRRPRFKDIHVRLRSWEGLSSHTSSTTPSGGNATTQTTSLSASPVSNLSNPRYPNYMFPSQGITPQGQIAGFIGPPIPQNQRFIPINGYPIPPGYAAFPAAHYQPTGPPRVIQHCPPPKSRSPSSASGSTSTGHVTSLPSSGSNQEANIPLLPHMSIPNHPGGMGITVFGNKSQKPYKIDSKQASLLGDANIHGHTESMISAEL

NCI-H23 [14] = experiment: Induction of apoptosis in human NCI-H23 cells assessed as early apoptotic cells at 1 uM incubated for 24 hrs by […]/Annexin V-PE staining based flow cytometric analysis (reference value: 5.1 %); format: functional
[15] = target: T1, von Hippel-Lindau disease tumor suppressor/Cyclin-dependent kinase-like 2 (Homo sapiens); experiment: PROTAC activity at VHL/CDKL2 in human NCI-H23 cells assessed as induction of CDKL2 degradation by Western blot analysis; format: cell-based
[16] = target: T4, von Hippel-Lindau disease tumor suppressor/Inactive tyrosine-protein kinase transmembrane receptor ROR1; experiment: PROTAC activity at VHL/ROR1 in human NCI-H460 cells assessed as induction of ROR1 degradation incubated for 12 hrs by Western blot analysis; format: cell-based
Target sequence in this assay (P40337 whole entry): as the sequence (P40337 whole entry) above
Target sequence in this assay (Q01973 whole entry): as the sequence (Q01973 whole entry) above

NCI-H23 [17] = experiment: Induction of apoptosis in human NCI-H23 cells assessed as viable cells at 0.1 uM incubated for 24 hrs by […]/Annexin V-PE staining based flow cytometric analysis (reference value: 92.7 %); format: functional; settings: read-out: Activity
[18] = target: T4, von Hippel-Lindau disease tumor suppressor/Inactive tyrosine-protein kinase transmembrane receptor ROR1; experiment: PROTAC activity at VHL/ROR1 in human NCI-H23 cells assessed as induction of ROR1 degradation at 0.5 uM preincubated with bafilomycin A1 for 2 hrs followed by compound addition and measured after 24 hrs by Western blot analysis; format: cell-based
Target sequence in this assay (P40337 whole entry): as the sequence (P40337 whole entry) above
Target sequence in this assay (Q01973 30-937 partner limits assumed): as the sequence (Q01973 30-937 partner limits assumed) above

NCI-H23 [19] = experiment: Induction of apoptosis in human NCI-H23 cells assessed as viable cells at 1 uM incubated for 24 hrs by […]/Annexin V-PE staining based flow cytometric analysis (reference value: 92.7 %); format: functional; settings: read-out: Activity
[20] = target: T4, von Hippel-Lindau disease tumor suppressor/Inactive tyrosine-protein kinase transmembrane receptor ROR1; experiment: PROTAC activity at VHL/ROR1 in human NCI-H23 cells assessed as induction of ROR1 degradation by measuring maximal efficacy at 10 to 1000 nM incubated for 12 hrs by Western blot analysis relative to control; format: cell-based; settings: dose 10-1000 nM
Target sequence in this assay (P40337 whole entry): as the sequence (P40337 whole entry) above
Target sequence in this assay (Q01973 30-937 partner limits assumed): as the sequence (Q01973 30-937 partner limits assumed) above

[21] = target: T4, von Hippel-Lindau disease tumor suppressor/Inactive tyrosine-protein kinase transmembrane receptor ROR1; experiment: PROTAC activity at VHL/ROR1 in human NCI-H23 cells assessed as induction of ROR1 degradation at 0.7 uM preincubated with TAK-243 for 2 hrs followed by compound addition and measured after 24 hrs by Western blot analysis; format: cell-based
Target sequence in this assay (P40337 whole entry): as the sequence (P40337 whole entry) above
Target sequence in this assay (Q01973 30-937 partner limits assumed): as the sequence (Q01973 30-937 partner limits assumed) above

NCI-H23 [22] = experiment: Induction of apoptosis in human NCI-H23 cells assessed as PARP1 cleavage at 0.1 uM measured after 10 hrs by Western blot analysis; format: functional, cell-based
[23] = target: T4, von Hippel-Lindau disease tumor suppressor/Inactive tyrosine-protein kinase transmembrane receptor ROR1; experiment: PROTAC activity at VHL/ROR1 in human NCI-H23 cells assessed as induction of ROR1 degradation at 0.7 uM preincubated with PS-341 for 2 hrs followed by compound addition and measured after 24 hrs by Western blot analysis; format: cell-based
Target sequence in this assay (P40337 whole entry): as the sequence (P40337 whole entry) above
Target sequence in this assay (Q01973 30-937 partner limits assumed): as the sequence (Q01973 30-937 partner limits assumed) above

[24] = target: T4, von Hippel-Lindau disease tumor suppressor/Inactive tyrosine-protein kinase transmembrane receptor ROR1; experiment: PROTAC activity at VHL/ROR1 in human NCI-H23 cells assessed as induction of ROR1 degradation at 1 uM incubated for 4 hrs by Western blot analysis; format: cell-based
[25] = target: T2, von Hippel-Lindau disease tumor suppressor/Tyrosine-protein kinase transmembrane receptor ROR2 (Homo sapiens); experiment: PROTAC activity at VHL/ROR2 in human NCI-H23 cells assessed as induction of ROR2 degradation by Western blot analysis; format: cell-based
NCI-H23 [26] = experiment: Antiproliferative activity against human NCI-H23 cells assessed as inhibition of cell proliferation incubated for 72 hrs by CCK8 assay; format: functional, cell-based; settings: NCI-H23, 72 h
NCI-H23 [27] = experiment: Induction of apoptosis in human NCI-H23 cells assessed as necrotic cells at 0.1 uM incubated for 24 hrs by […]/Annexin V-PE staining based flow cytometric analysis (reference value: 0.5 %); format: functional
NCI-H1299 = experiment: Antiproliferative activity against human NCI-H1299 cells assessed as inhibition of cell proliferation incubated for 72 hrs by CCK8 assay; format: functional, cell-based; settings: NCI-H1299, 72 h
NCI-H460 = experiment: Antiproliferative activity against human NCI-H460 cells assessed as inhibition of cell proliferation incubated for 72 hrs by CCK8 assay; format: functional, cell-based; settings: NCI-H460, 72 h
[28] = target: T4, von Hippel-Lindau disease tumor suppressor/Inactive tyrosine-protein kinase transmembrane receptor ROR1; experiment: PROTAC activity at VHL/ROR1 in human NCI-H1299 cells assessed as induction of ROR1 degradation incubated for 12 hrs by Western blot analysis; format: cell-based
Target sequence in this assay (P40337 whole entry): as the sequence (P40337 whole entry) above
Target sequence in this assay (Q01973 whole entry): as the sequence (Q01973 whole entry) above

NCI-H23 [29] = experiment: Induction of apoptosis in human NCI-H23 cells assessed as necrotic cells at 1 uM incubated for 24 hrs by […]/Annexin V-PE staining based flow cytometric analysis (reference value: 0.5 %); format: functional
[30] = target: T4, von Hippel-Lindau disease tumor suppressor/Inactive tyrosine-protein kinase transmembrane receptor ROR1; experiment: PROTAC activity at VHL/ROR1 in human NCI-H23 cells assessed as induction of ROR1 degradation at 1 uM incubated for 24 hrs by Western blot analysis; format: cell-based
[31] = target: T4, von Hippel-Lindau disease tumor suppressor/Inactive tyrosine-protein kinase transmembrane receptor ROR1; experiment: PROTAC activity at VHL/ROR1 in human NCI-H23 cells assessed as induction of ROR1 degradation at 1 uM incubated for 24 hrs by Western blot analysis relative to control; format: cell-based
NCI-H23 [32] = experiment: Induction of apoptosis in human NCI-H23 cells assessed as early apoptotic cells at 0.1 uM incubated for 24 hrs by […]/Annexin V-PE staining based flow cytometric analysis (reference value: 5.1 %); format: functional
[33] = target: T4, von Hippel-Lindau disease tumor suppressor/Inactive tyrosine-protein kinase transmembrane receptor ROR1; experiment: PROTAC activity at VHL/ROR1 in human NCI-H23 cells assessed as induction of ROR1 degradation at 0.1 uM incubated for 24 hrs by Western blot analysis relative to control; format: cell-based
NCI-H23 [34] = experiment: Induction of apoptosis in human NCI-H23 cells assessed as late apoptotic cells at 0.3 uM incubated for 24 hrs by […]/Annexin V-PE staining based flow cytometric analysis (reference value: 1.6 %); format: functional
NCI-H23 [35] = experiment: Induction of apoptosis in human NCI-H23 cells assessed as viable cells at 0.3 uM incubated for 24 hrs by […]/Annexin V-PE staining based flow cytometric analysis (reference value: 92.7 %); format: functional; settings: read-out: Activity
[36] = target: T5, von Hippel-Lindau disease tumor suppressor/Cyclin-dependent kinase 7 (Homo sapiens); experiment: PROTAC activity at VHL/CDK7 in human NCI-H1975 cells assessed as induction of CDK7 degradation by Western blot analysis; format: cell-based
NCI-H1975 = experiment: Antiproliferative activity against human NCI-H1975 cells assessed as inhibition of cell proliferation incubated for 72 hrs by CCK8 assay; format: functional, cell-based; settings: NCI-H1975, 72 h
NCI-H23 [37] = experiment: Induction of apoptosis in human NCI-H23 cells assessed as PARP1 cleavage at 1 uM measured after 10 hrs by Western blot analysis; format: functional
[38] = target: Inactive tyrosine-protein kinase transmembrane receptor ROR1 (Homo sapiens, UniProt Q01973); experiment: Binding affinity to RED-NHS-labeled human ROR1 kinase domain (460 to 752 residues) extracted from Sf9 cells assessed as dissociation constant incubated for 30 mins by MST analysis; format: cell-free
NCI-H23 [39] = experiment: Induction of apoptosis in human NCI-H23 cells assessed as PARP1 cleavage at 0.1 to 1 uM measured after 10 hrs by Western blot analysis; format: functional, cell-based; settings: dose 0.1-1 µM

T3 sequence (P11802 2-303 limits assumed): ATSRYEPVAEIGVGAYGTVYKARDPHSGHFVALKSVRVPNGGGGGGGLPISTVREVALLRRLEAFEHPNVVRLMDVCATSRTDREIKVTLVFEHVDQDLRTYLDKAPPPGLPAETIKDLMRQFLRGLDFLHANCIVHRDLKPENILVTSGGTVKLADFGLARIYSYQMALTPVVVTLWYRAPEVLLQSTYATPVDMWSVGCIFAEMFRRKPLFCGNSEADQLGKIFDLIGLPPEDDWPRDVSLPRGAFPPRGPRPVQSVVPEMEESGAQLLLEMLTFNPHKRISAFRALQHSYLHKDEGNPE
T3 sequence (P40337 whole entry partner): as the sequence (P40337 whole entry) above
T2 sequence (P40337 whole entry, looked up): as the sequence (P40337 whole entry) above
T2 sequence (Q01974 whole entry, looked up): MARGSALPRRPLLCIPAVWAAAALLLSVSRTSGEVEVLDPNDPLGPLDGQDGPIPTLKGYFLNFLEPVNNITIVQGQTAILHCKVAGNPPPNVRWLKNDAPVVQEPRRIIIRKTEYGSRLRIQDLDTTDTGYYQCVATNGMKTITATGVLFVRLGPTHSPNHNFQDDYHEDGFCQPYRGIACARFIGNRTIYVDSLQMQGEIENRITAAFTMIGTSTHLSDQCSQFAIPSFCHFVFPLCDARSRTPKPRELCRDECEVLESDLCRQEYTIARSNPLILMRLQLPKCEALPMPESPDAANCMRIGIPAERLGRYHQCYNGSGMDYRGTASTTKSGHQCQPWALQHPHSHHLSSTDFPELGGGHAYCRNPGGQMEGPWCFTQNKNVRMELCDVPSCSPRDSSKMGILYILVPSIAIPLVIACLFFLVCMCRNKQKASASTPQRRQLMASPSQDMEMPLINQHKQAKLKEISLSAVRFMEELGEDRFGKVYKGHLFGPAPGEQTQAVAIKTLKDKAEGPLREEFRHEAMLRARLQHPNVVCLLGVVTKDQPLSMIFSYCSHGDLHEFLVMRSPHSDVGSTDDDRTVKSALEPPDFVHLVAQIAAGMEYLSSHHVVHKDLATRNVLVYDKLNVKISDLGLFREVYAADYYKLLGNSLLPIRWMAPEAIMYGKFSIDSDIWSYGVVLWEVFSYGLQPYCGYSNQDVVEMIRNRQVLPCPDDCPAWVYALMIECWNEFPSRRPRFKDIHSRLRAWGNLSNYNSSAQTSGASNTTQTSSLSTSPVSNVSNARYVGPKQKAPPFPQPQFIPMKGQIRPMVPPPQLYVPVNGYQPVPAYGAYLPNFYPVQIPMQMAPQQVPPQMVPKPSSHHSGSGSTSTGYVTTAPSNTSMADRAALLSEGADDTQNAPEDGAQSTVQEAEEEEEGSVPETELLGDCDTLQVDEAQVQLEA

## CCN1CCC(Nc2c(Br)cnc3[nH]c(-c4ccc(N5CCN(C(=O)CCCCCCCCC(=O)N[C@H](C(=O)N6C[C@H](O)C[C@H]6C(=O)NCc6ccc(-c7scnc7C)cc6)C(C)(C)C)CC5)cc4)nc23)CC1
NCI-H23 [1]
  Activity: 0.8%
[2]
  Activity: inactive
NCI-H23 [3]
  Activity: 22.1%
[4]
  Activity: Active; Slight Degradation Observed
[5]
  Activity: inactive
NCI-H23 [6]
  Activity: 6.5%
[7]
  Activity: Dose-dependent-effect
  DC50: 40.9 nM
[8]
  Activity: Active; Compound Reduction Ror1 Protein Via Protein Degradation Pathway
[9]
  Activity: Time-dependent-effect
NCI-H23 [10]
  Activity: 46.5%
[11]
  Activity: inactive
[12]
  Activity: inactive
[13]
  DC50: 42.1 nM
NCI-H23 [14]
  Activity: 46.9%
[15]
  Activity: inactive
[16]
  DC50: 69 nM
NCI-H23 [17]
  viability at 0.1 µM: 63.2%
[18]
  Activity: Active
NCI-H23 [19]
  viability at 1 µM: 29.9%
[20]
  Emax: 93.7%
[21]
  Activity: inactive
NCI-H23 [22]
  Activity: Active
[23]
  Activity: inactive
[24]
  Activity: Active
[25]
  Activity: inactive
NCI-H23 [26]
  IC50: 36 nM
NCI-H23 [27]
  Activity: 0.3%
NCI-H1299
  IC50: 164 nM
NCI-H460
  IC50: 85 nM
[28]
  DC50: 83.3 nM
NCI-H23 [29]
  Activity: 1.4%
[30]
  Activity: Active; Maximal Degradation Observed
[31]
  Activity: 99.7%
NCI-H23 [32]
  Activity: 29.9%
[33]
  Activity: 93%
NCI-H23 [34]
  Activity: 20.1%
NCI-H23 [35]
  viability at 0.3 µM: 32.5%
[36]
  Activity: inactive
NCI-H1975
  IC50: 63 nM

## CCOCCN1CCN(c2ccc(-c3nc4c(NC5CCN(CC)CC5)c(Br)cnc4[nH]3)cc2)CC1
NCI-H23 [1]
  Activity: 0.2%
NCI-H23 [3]
  Activity: 6.1%
NCI-H23 [37]
  Activity: 100%
NCI-H23 [6]
  Activity: 0.5%
[38]
  Kd: 42000 nM
NCI-H23 [10]
  Activity: 4.3%
NCI-H23 [39]
  Activity: Active; Less Potent Compared To Compound 11
NCI-H23 [14]
  Activity: 29.5%
NCI-H23 [17]
  viability at 0.1 µM: 96.9%
NCI-H23 [19]
  viability at 1 µM: 63.7%
NCI-H23 [26]
  IC50: 483 nM
NCI-H23 [27]
  Activity: 0.2%
NCI-H1299
  IC50: 5820 nM
NCI-H460
  IC50: 5210 nM
NCI-H23 [29]
  Activity: 0.7%
NCI-H23 [32]
  Activity: 2.5%
NCI-H23 [34]
  Activity: 1%
NCI-H23 [35]
  viability at 0.3 µM: 94.5%
NCI-H1975
  IC50: 371 nM

## CCN1CCC(Nc2c(Br)cnc3[nH]c(-c4ccc(N5CCN(C(=O)CCCCC(=O)N[C@H](C(=O)N6C[C@H](O)C[C@H]6C(=O)NCc6ccc(-c7scnc7C)cc6)C(C)(C)C)CC5)cc4)nc23)CC1
[31]
  Activity: 35.3%
[33]
  Activity: 12.9%
